Laboratory results: ChEMBL document CHEMBL1143959, “Synthesis and structure-affinity relationships of novel spirocyclic sigma receptor ligands with furopyrazole structure” (Bioorg Med Chem, 2008)

Legend:
Rattus norvegicus = species on record: Rattus norvegicus; test: Displacement of [3H]ditolylguanidine from sigma 2 […] receptor in rat liver at 1 uM
[1] = Displacement of [3H]ditolylguanidine from sigma 2 […] receptor in rat liver
[2] = Displacement of [3H]MK-801 from NMDA receptor at 1 uM
[3] = Inhibition of adrenergic alpha 1 receptor
[4] = Inhibition of adrenergic alpha 2 receptor
[5] = biological target: T1, 5-hydroxytryptamine receptor 1A (Homo sapiens, UniProt P08908); test: Inhibition of 5HT1A receptor
T1 sequence (P08908 whole entry): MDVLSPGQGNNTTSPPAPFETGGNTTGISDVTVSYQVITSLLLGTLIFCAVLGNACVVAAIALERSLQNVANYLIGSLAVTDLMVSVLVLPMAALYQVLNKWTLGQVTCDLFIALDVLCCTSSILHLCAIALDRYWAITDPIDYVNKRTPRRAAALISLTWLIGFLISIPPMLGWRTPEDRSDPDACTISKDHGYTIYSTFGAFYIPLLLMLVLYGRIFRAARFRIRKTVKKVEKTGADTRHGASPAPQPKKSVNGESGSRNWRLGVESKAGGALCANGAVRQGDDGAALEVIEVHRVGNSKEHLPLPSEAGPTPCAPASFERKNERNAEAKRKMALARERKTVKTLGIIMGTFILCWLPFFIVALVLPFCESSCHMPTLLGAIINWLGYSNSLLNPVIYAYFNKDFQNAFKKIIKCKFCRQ

[6] = biological target: Sodium-dependent serotonin transporter (Homo sapiens, UniProt P31645); test: Inhibition of 5HTT receptor
[7] = biological target: Voltage-gated inwardly rectifying potassium channel KCNH2 (Homo sapiens, UniProt Q12809); test: Inhibition of human ERG channel
[8] = biological target: Sigma non-opioid intracellular receptor 1 (Cavia porcellus, UniProt Q60492); test: Displacement of [3H](+)-pentazocine from sigma 1 opioid receptor in guinea pig brain membrane; type: cell membranes
Chain of Sigma non-opioid intracellular receptor 1 (Q60492 whole entry): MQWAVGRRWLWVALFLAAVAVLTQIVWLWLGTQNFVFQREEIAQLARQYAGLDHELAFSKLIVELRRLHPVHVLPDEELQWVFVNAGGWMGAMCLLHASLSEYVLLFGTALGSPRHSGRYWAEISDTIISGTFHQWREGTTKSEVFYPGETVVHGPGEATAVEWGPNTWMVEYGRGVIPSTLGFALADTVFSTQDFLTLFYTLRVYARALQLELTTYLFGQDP

Chain of Voltage-gated inwardly rectifying potassium channel KCNH2 (Q12809 whole entry): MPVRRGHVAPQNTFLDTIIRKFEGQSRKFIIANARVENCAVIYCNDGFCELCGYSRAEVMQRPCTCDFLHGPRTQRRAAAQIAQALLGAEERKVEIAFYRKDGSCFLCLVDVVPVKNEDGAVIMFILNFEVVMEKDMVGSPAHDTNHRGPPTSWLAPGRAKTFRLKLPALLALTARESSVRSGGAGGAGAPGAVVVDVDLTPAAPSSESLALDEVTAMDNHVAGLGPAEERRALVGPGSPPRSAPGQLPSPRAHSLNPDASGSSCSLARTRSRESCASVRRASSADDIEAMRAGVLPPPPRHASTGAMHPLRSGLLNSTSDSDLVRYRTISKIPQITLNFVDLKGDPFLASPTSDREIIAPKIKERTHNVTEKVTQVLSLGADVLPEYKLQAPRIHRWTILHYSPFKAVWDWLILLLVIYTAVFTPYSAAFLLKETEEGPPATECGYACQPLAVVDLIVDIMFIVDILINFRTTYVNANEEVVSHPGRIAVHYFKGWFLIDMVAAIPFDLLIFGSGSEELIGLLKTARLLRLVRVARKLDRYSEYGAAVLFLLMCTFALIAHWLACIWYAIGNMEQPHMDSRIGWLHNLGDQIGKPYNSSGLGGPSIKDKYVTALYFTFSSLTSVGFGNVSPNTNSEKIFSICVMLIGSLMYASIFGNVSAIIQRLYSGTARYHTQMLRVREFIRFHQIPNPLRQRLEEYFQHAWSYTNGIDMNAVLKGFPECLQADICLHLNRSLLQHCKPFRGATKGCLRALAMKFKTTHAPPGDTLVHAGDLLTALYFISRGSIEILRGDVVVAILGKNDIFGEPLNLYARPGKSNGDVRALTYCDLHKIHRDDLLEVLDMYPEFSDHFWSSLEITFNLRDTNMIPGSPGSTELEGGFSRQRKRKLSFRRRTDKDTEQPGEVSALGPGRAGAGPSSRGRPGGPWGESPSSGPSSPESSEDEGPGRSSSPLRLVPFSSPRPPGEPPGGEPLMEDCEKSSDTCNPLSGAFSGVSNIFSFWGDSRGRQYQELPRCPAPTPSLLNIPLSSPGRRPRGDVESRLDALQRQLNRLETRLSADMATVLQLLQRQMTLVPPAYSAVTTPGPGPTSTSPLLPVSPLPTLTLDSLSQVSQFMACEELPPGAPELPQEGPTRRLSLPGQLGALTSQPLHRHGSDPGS
Chain of Sodium-dependent serotonin transporter (P31645 whole entry): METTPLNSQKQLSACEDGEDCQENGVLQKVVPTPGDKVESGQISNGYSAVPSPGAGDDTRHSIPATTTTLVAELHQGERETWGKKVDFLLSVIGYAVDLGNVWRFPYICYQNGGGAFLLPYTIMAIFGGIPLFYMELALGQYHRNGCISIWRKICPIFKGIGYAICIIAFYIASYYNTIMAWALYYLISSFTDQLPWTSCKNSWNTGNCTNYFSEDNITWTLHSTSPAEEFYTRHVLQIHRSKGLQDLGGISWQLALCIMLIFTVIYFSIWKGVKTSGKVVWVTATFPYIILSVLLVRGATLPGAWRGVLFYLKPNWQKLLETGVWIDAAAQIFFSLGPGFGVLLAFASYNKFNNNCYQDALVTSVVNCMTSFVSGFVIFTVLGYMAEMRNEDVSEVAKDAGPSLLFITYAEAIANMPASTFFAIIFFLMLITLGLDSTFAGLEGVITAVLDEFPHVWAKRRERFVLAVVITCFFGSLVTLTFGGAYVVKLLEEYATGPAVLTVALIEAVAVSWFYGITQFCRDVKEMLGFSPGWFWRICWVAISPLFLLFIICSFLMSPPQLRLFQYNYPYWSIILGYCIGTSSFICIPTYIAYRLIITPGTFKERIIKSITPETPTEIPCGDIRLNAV

SMILES	inhibition (Rattus norvegicus)	Ki [1]	inhibition [2]	IC50 [3]	IC50 [4]	IC50 [5]	IC50 [6]	IC50 [7]	Ki [8]
COC1OC2(CCNCC2)c2cnn(-c3ccccc3)c21 (stereo not drawn)	12%								
CCCCN1CCC2(CC1)OC(OC)c1c2cnn1-c1ccccc1 (stereo not drawn)		1.05 µM	30%	1.22 µM	> 1 µM	> 10 µM	> 10 µM	0.00065 µM	
COC1OC2(CCN(Cc3ccccc3)CC2)c2cnn(-c3ccccc3)c21 (stereo not drawn)		1.75 µM	17%	> 1 µM	> 1 µM	> 10 µM	> 10 µM	0.00041 µM	0.0005 µM
c1ccc(-n2ncc3c2CCC3CCN2CCCCC2)cc1 (stereo not drawn)		0.0362 µM							
Cc1ccccc1NC(=N)Nc1ccccc1C [DITOLYLGUANIDINE]		0.0202 µM							
